From patent US8278345B2, “Inhibitors of glutaminyl cyclase” (Probiodrug AG, priority 2006, dated 2012)

target: hQC (Homo sapiens, UniProt Q16769); test: Inhibitor assay for glutaminyl cyclase activity (fluorometric, H-Gln-βNA / H-Gln-AMC); assay type: biochemical; details: compound from preparative synthesis, purified; read-out: IC50 hQC
Method in brief: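 Coupled fluorometric assay at 30 °C with pyroglutamyl aminopeptidase, in Tris/HCl pH 8.0 with EDTA, substrate H-Gln-βNA (0.2 mM; ex/em 320/410 nm) or H-Gln-AMC (ex/em 380/460 nm), initiated by QC. Screening: 4 mM inhibitor, substrate at 1 KM; Ki from progress curves fitted to competitive inhibition.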

Chain of hQC (Q16769 29-361): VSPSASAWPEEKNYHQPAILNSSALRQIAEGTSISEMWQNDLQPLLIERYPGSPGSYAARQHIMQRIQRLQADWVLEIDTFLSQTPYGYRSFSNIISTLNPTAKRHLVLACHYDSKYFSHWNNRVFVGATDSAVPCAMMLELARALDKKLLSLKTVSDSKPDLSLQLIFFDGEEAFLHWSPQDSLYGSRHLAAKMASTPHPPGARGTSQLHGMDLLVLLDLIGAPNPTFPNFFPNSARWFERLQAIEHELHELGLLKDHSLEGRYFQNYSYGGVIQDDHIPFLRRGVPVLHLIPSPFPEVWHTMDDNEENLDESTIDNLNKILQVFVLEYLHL

Work on `CC(=O)C1=C(O)C(=O)N(c2ccc3[nH]cnc3c2)C1c1ccc2nsnc2c1` (stereo not shown) [Compound 376, 4-Acetyl-1-(1H-benzoimidazol-5-yl)-5-benzo[c][1,2,5]thiadiazol-5-yl-3-hydroxy-1,5-dihydro-pyrrol-2-one] yielded an IC50 of 0.0087 µM.

same assay, conditions: read-out: IC50

In order of falling IC50:
1. O=C(O)CCC1C(C(=O)C2CCCCC2)=C(O)C(=O)N1c1ccc2[nH]cnc2c1 (stereo not shown) [Compound 361, 3-[1-(1H-Benzoimidazol-5-yl)-3-cyclohexanecarbonyl-4-hydroxy-5-oxo-2,5-dihydro-1H-pyrrol-2-yl]-propionic acid]  8.95 µM
2. CC(C)(C)C(=O)C1=C(O)C(=O)N(c2ccc3[nH]cnc3c2)C1c1c(F)c(F)cc(F)c1F (stereo not shown) [Compound 442, 1-(1H-Benzoimidazol-5-yl)-4-(2,2-dimethyl-propionyl)-3-hydroxy-5-(2,3,5,6-tetrafluoro-phenyl)-1,5-dihydro-pyrrol-2-one]  8.59 µM
3. CCCC(=O)C1=C(O)C(=O)N(c2ccc3[nH]cnc3c2)C1c1c[nH]cn1 (stereo not shown) [Compound 359, 1-(1H-Benzoimidazol-5-yl)-4-butyryl-3-hydroxy-5-(1H-imidazol-4-yl)-1,5-dihydro-pyrrol-2-one]  7.78 µM
4. CC1=C(O)C(=O)N(CCCn2ccnc2)C1c1cc[nH]n1 (stereo not shown) [Compound 23, 3-Hydroxy-1-(3-imidazol-1-yl-propyl)-4-methyl-5-(1H-pyrazol-3-yl)-1,5-dihydro-pyrrol-2-one]  7.6 µM
5. O=C1C(O)=C(c2ccc(O)cc2)C(C2CCOC2)N1c1ccc2[nH]cnc2c1 (stereo not shown) [Compound 279, 1-(1H-Benzoimidazol-5-yl)-3-hydroxy-4-(4-hydroxy-phenyl)-5-(tetrahydro-furan-3-yl)-1,5-dihydro-pyrrol-2-one]  5.8 µM
6. Cc1[nH]c2ccccc2c1C1C(c2c[nH]c3ccccc23)=C(O)C(=O)N1c1ccc2[nH]cnc2c1 (stereo not shown) [Compound 285, 1-(1H-Benzoimidazol-5-yl)-3-hydroxy-4-(1H-indol-3-yl)-5-(2-methyl-1H-indol-3-yl)-1,5-dihydro-pyrrol-2-one]  5.71 µM
7. CC1=C(O)C(=O)N(CCCn2ccnc2)C1c1cccs1 (stereo not shown) [Compound 45, 3-Hydroxy-1-(3-imidazol-1-yl-propyl)-4-methyl-5-thiophen-2-yl-1,5-dihydro-pyrrol-2-one]  3.1 µM
8. CCCC(=O)C1=C(O)C(=O)N(c2ccc3[nH]cnc3c2)C1c1cccc(C)n1 (stereo not shown) [Compound 334, 1-(1H-Benzoimidazol-5-yl)-4-butyryl-3-hydroxy-5-(6-methyl-pyridin-2-yl)-1,5-dihydro-pyrrol-2-one]  2.65 µM
9. CC1=C(O)C(=O)N(CCCn2ccnc2)C1C1=CCCCC1 (stereo not shown) [Compound 36, 5-Cyclohex-1-enyl-3-hydroxy-1-(3-imidazol-1-yl-propyl)-4-methyl-1,5-dihydro-pyrrol-2-one]  2.2 µM
10. CCCCC1C(C)=C(O)C(=O)N1CCCn1ccnc1 (stereo not shown) [Compound 48, 5-Butyl-3-hydroxy-1-(3-imidazol-1-yl-propyl)-4-methyl-1,5-dihydro-pyrrol-2-one]  2.2 µM
11. CCC1=C(O)C(=O)N(c2ccc3[nH]cnc3c2)C1c1ccc2nonc2c1 (stereo not shown) [Compound 431, 1-(1H-Benzoimidazol-5-yl)-5-(benzo[c][1,2,5]oxadiazol-5-yl)-4-ethyl-3-hydroxy-1,5-dihydro-pyrrol-2-one]  2.11 µM
12. O=C(C1=C(O)C(=O)N(c2ccc3[nH]cnc3c2)C1c1ccc(CO)o1)c1ccsc1 (stereo not shown) [Compound 263, 1-(1H-Benzoimidazol-5-yl)-3-hydroxy-5-(5-hydroxymethyl-furan-2-yl)-4-(thiophene-3-carbonyl)-1,5-dihydro-pyrrol-2-one]  2.02 µM
13. O=C1C(O)=C(c2ccccc2)C(c2ccc(Cl)c(C(F)(F)F)c2)N1c1ccc2[nH]cnc2c1 (stereo not shown) [Compound 305, 1-(1H-Benzoimidazol-5-yl)-5-(4-chloro-3-trifluoromethyl-phenyl)-3-hydroxy-4-phenyl-1,5-dihydro-pyrrol-2-one]  1.75 µM
14. CCCC(=O)C1=C(O)C(=O)N(c2ccc3[nH]cnc3c2)C1c1ccnc2ccccc12 (stereo not shown) [Compound 404, 1-(1H-Benzoimidazol-5-yl)-4-butyryl-3-hydroxy-5-quinolin-4-yl-1,5-dihydro-pyrrol-2-one]  1.57 µM
15. Cc1ccc2occ(C3C(C(C)C)=C(O)C(=O)N3c3ccc4[nH]cnc4c3)c(=O)c2c1 (stereo not shown) [Compound 331, 1-(1H-Benzoimidazol-5-yl)-3-hydroxy-4-isopropyl-5-(6-methyl-4-oxo-4H-chromen-3-yl)-1,5-dihydro-pyrrol-2-one]  1.39 µM
16. Cc1ccc(C2C(c3cccc(O)c3)=C(O)C(=O)N2CCCn2ccnc2)cc1C (stereo not shown) [Compound 15, 5-(3,4-Dimethyl-phenyl)-3-hydroxy-4-(3-hydroxy-phenyl)-1-(3-imidazol-1-yl-propyl)-1,5-dihydro-pyrrol-2-one]  1.3 µM
17. CCC1=C(O)C(=O)N(CCCn2ccnc2)C1c1ccccc1F (stereo not shown) [Compound 250, 4-Ethyl-5-(2-fluoro-phenyl)-3-hydroxy-1-(3-imidazol-1-yl-propyl)-1,5-dihydro-pyrrol-2-one]  1.3 µM
18. CCC1=C(O)C(=O)N(CCCn2ccnc2)C1c1ccccc1 (stereo not shown) [Compound 236, 4-Ethyl-3-hydroxy-1-(3-imidazol-1-yl-propyl)-5-phenyl-1,5-dihydro-pyrrol-2-one]  1.3 µM
19. CC1=C(O)C(=O)N(c2ccc3[nH]cnc3c2)C1c1c[nH]c2cc(C)ccc12 (stereo not shown) [Compound 436, 1-(1H-Benzoimidazol-5-yl)-3-hydroxy-4-methyl-5-(6-methyl-1H-indol-3-yl)-1,5-dihydro-pyrrol-2-one]  0.49 µM
20. CCCCCC1=C(O)C(=O)N(CCCn2ccnc2)C1CCCC (stereo not shown) [Compound 214, 5-Butyl-3-hydroxy-1-(3-imidazol-1-yl-propyl)-4-pentyl-1,5-dihydro-pyrrol-2-one]  0.4 µM
21. O=C1C(O)=C(c2c[nH]c3ccccc23)C(c2ccco2)N1CCCn1ccnc1 (stereo not shown) [Compound 140, 5-Furan-2-yl-3-hydroxy-1-(3-imidazol-1-yl-propyl)-4-(1H-indol-3-yl)-1,5-dihydro-pyrrol-2-one]  0.4 µM
22. O=C(C1=C(O)C(=O)N(c2ccc3[nH]cnc3c2)C1c1ccc(CO)o1)C1CC1 (stereo not shown) [Compound 418, 1-(1H-Benzoimidazol-5-yl)-4-cyclopropanecarbonyl-3-hydroxy-5-(5-hydroxymethyl-furan-2-yl)-1,5-dihydro-pyrrol-2-one]  0.31 µM
23. Cc1ccc(C2C(c3ccc(O)cc3)=C(O)C(=O)N2CCCn2ccnc2)o1 (stereo not shown) [Compound 154, 3-Hydroxy-4-(4-hydroxy-phenyl)-1-(3-imidazol-1-yl-propyl)-5-(5-methyl-furan-2-yl)-1,5-dihydro-pyrrol-2-one]  0.04 µM
24. CCCCCC1=C(O)C(=O)N(CCCn2ccnc2)C1CCC (stereo not shown) [Compound 187, 3-Hydroxy-1-(3-imidazol-1-yl-propyl)-4-pentyl-5-propyl-1,5-dihydro-pyrrol-2-one]  0.04 µM
25. O=C1C(O)=C(c2c[nH]c3ccccc23)C(CO)N1CCCn1ccnc1 (stereo not shown) [Compound 138, 3-Hydroxy-5-hydroxymethyl-1-(3-imidazol-1-yl-propyl)-4-(1H-indol-3-yl)-1,5-dihydro-pyrrol-2-one]  0.04 µM
26. CC(=O)C1=C(O)C(=O)N(c2ccc3[nH]cnc3c2)C1c1ccc2nsnc2c1 (stereo not shown) [Compound 376, 4-Acetyl-1-(1H-benzoimidazol-5-yl)-5-benzo[c][1,2,5]thiadiazol-5-yl-3-hydroxy-1,5-dihydro-pyrrol-2-one]  0.004 µM
27. CC(=O)C1=C(O)C(=O)N(c2ccc3[nH]cnc3c2)C1c1ccc(CO)o1 (stereo not shown) [Compound 352, 4-Acetyl-1-(1H-benzoimidazol-5-yl)-3-hydroxy-5-(5-hydroxymethyl-furan-2-yl)-1,5-dihydro-pyrrol-2-one]  0.004 µM
